# Experimental data taken from patent US11384079B2, “6-5 fused rings as C5a inhibitors” (CHEMOCENTRYX, INC., priority 2017, dated 2022).
# Biological target: T1, C5aR (Homo sapiens, UniProt P21730)
# T1 construct: U937 cells are a monocytic cell line which express C5aR; host or cells: U937 cells (cAMP treated) or isolated neutrophils
# T1 sequence (P21730 1-350): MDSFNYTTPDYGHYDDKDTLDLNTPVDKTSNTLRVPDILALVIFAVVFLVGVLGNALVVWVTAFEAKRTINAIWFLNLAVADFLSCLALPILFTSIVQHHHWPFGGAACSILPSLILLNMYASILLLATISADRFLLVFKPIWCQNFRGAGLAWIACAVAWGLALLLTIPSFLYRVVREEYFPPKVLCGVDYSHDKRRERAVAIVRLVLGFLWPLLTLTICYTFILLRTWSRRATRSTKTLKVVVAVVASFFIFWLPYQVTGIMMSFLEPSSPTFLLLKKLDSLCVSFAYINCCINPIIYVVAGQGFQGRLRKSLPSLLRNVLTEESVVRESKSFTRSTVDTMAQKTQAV
# Assay: chemotaxis assay (C5aR mediated migration)
# Format: cell-based
# Details: migration of U937 or neutrophil cells toward C5a (0.03 nM), 1.5 hours at 37° C., read-out: Mig IC50
# How it was run: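 Migration of cAMP-treated U937 cells (0.5 mM overnight), or of human or murine neutrophils, toward C5a was measured through 5 μm polycarbonate filters in HBSS with 1% FBS. SDF-1α served as a specificity control. After 1.5 h at 37 °C, lower-chamber cells were counted directly or by CyQuant.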
row,IC50 [nM],SMILES
1,5 to 50,FC(F)(F)c1ccccc1CN1CCc2nn(-c3c(Cl)cccc3Cl)c(-c3ccc4[nH]ccc4c3)c2C1 [Example 1.219]
2,5 to 50,CCc1cccc(CC)c1-n1nc2c(c1-c1ccc3[nH]cc(Cl)c3c1)CN(Cc1cc(F)ccc1Cl)CC2 [Example 1.220]
3,5 to 50,Cc1cccc(C)c1-n1nc2c(c1-c1ccc3[nH]ccc3c1)CN(Cc1ccccc1C(F)(F)F)CC2 [Example 1.221]
4,< 5,CCc1cccc(CC)c1-n1nc2c(c1-c1ccc3[nH]ccc3c1)CN(Cc1c(Cl)cccc1C(F)(F)F)CC2 [Example 1.223]
5,< 5,CCc1cccc(CC)c1-n1nc2c(c1-c1ccc3[nH]ccc3c1)CN(Cc1cc(Cl)ccc1C(F)(F)F)CC2 [Example 1.226]
6,< 5,CCc1cccc(CC)c1-n1nc2c(c1-c1ccc3[nH]ccc3c1)CN(Cc1cc(Cl)ccc1Cl)CC2 [Example 1.227]
7,< 5,CCc1cccc(CC)c1-n1nc2c(c1-c1ccc3[nH]ccc3c1)CN(Cc1cc(F)ccc1Cl)CC2 [Example 1.230]
8,< 5,CCc1cccc(CC)c1-n1nc2c(c1-c1ccc3[nH]ccc3c1)CN(Cc1ccccc1C(F)(F)F)CC2 [Example 1.231]

# More lines, now with the values behind:
row,SMILES,IC50 [nM]
1,Cc1cccc(OCC(C)C)c1-n1nc2c(c1-c1ccc3[nH]nc(C)c3c1)CN(c1ncc(C(F)(F)F)cc1F)CC2 [Example 1.215],> 500
2,Cc1cccc(OCC(C)C)c1-n1nc2c(c1-c1ccc3[nH]ccc3c1)CN(c1ncc(C(F)(F)F)cc1Cl)CC2 [Example 1.216],5 to 50
3,Cc1cccc(OCC(C)C)c1-n1nc2c(c1-c1ccnc3[nH]ccc13)CN(c1ncc(C(F)(F)F)cc1F)CC2 [Example 1.217],50 to 500
4,Cc1cccc(OCC(C)C)c1-n1nc2c(c1-c1cc(F)c3[nH]ccc3c1)CN(c1ncc(C(F)(F)F)cc1F)CC2 [Example 1.218],< 5
5,Cc1cccc(OCC(C)C)c1-n1nc2c(c1-c1cccc3[nH]ccc13)CN(Cc1ccccc1C(F)(F)F)CC2 [Example 1.222],5 to 50
6,Cc1nc2cc(-c3c4c(nn3-c3c(C)cccc3OCC(C)C)CCN(c3ncc(C(F)(F)F)cc3F)C4)ccc2[nH]1 [Example 1.224],> 500
7,Cc1cccc(OCC(C)C)c1-n1nc2c(c1-c1ccc3[nH]nc(N)c3c1)CN(c1ncc(C(F)(F)F)cc1F)CC2 [Example 1.225],> 500
8,Cc1cccc(OCC(C)C)c1-n1nc2c(c1-c1ccc3cc[nH]c3c1)CN(c1ncc(C(F)(F)F)cc1F)CC2 [Example 1.228],50 to 500
9,Cc1cccc(OCC(C)C)c1-n1nc2c(c1-c1cccc3[nH]ccc13)CN(c1ncc(C(F)(F)F)cc1F)CC2 [Example 1.229],5 to 50
10,Cc1cccc(OCC(C)C)c1-n1nc2c(c1-c1ccc3[nH]ccc3c1)CN(c1ncc(C(F)(F)F)cc1F)CC2 [Example 1.232],< 5
11,Cc1cccc(OCC(C)C)c1-n1nc2c(c1-c1ccc3[nH]ccc3c1)CN(C(C)c1ccccc1C(F)(F)F)CC2 (centres unmarked) [Example 1.233],< 5
12,Cc1cccc(OCC(C)C)c1-n1nc2c(c1-c1ccc3[nH]ccc3c1)CN(Cc1ccc(C(F)(F)F)cc1C(F)(F)F)CC2 [Example 1.234],5 to 50
13,Cc1cccc(OCC(C)C)c1-n1nc2c(c1-c1ccc3[nH]ccc3c1)CN(Cc1ccccc1C(F)(F)F)CC2 [Example 1.235],< 5
14,Cc1cccc(OCC(C)C)c1-n1nc2c(c1-c1ccc3cc[nH]c3c1)CN(CC(C)(C)C)CC2 [Example 1.236],50 to 500
15,Cc1cccc(OCC(C)C)c1-n1nc2c(c1-c1ccc3[nH]ccc3c1)CN(CC(C)(C)C)CC2 [Example 1.237],< 5
16,Cc1cccc(OCC(C)C)c1-n1nc2c(c1-c1ccc3[nH]ccc3c1)CN(C(=O)OCc1ccccc1)CC2 [Example 1.238],5 to 50
17,Cc1cccc(C)c1-n1nc2c(c1-c1ccc3[nH]ccc3c1)CN(CC(C)(C)C)CC2 [Example 1.239],5 to 50
18,Cc1cccc(C)c1-n1nc2c(c1-c1ccc3[nH]ccc3c1)CN(C(=O)OC(C)(C)C)CC2 [Example 1.240],5 to 50
